Assay results published in patent US20210353579A1, “HIGH PENETRATION COMPOSITIONS AND USES THEREOF” (Techfields Pharma Co., Ltd., priority 2006, published 2021).
Converted amounts (≈) assume the structure as drawn. Like-named read-outs stand apart in the source and are kept apart here.

Legend:
human skin tissue = details: pH 7.4; for In vitro penetration rate (apparent flux), parent compounds: human, 20 %
[1] = Solubility in water / aqueous solubility of HPPs and parent drugs; details: for solubility: water
in vivo = details: rat
Protocol: The acute toxicity of the prodrug compounds and parent compounds are measured by LD50 of rat.

[2] = Plasma levels after transdermal administration to hairless mice; type: in vivo; details: for t, time to peak plasma level after parent compound: parent compound administered (time when taken orally); for Peak plasma concentration after parent compound: parent compound administered, hairless mice; for Peak plasma concentration of parent compound after prodrug compound / t, time to peak plasma level of parent compound after prodrug compound: mouse, in vivo
Protocol: Tested compounds (20% solution or suspension in 1 mL isopropanol) are administered transdermally to the skin of intact hairless mice. The plasma levels of the parent compounds are determined by HPLC.

rats = experiment: Antipyretic activity, E. coli suspension as pyrogen; type: in vivo; details: in °C (unit assumed)
Protocol: Rats are administered with sterilized E. coli suspension as a pyrogen. Each group of rats are administered with a prodrug compounds or parent compounds at a dosage specified below. The prodrug compounds are administered either orally or transdermally. The parent compounds are administered orally.

mice = experiment: Analgesic activity, acetic acid writhing; type: in vivo; details: 30 min before acetic acid
Protocol: The prodrug compounds are administered either transdermally or orally. The parent compounds are administered orally. The number of writhing that occurred when mice are administered the acetic acid solution are counted, and the rate of inhibition based on the control group which was not pretreated with any test compounds is calculated. […] The A group is the control group.
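Wherever LD50 is given: acute toxicity in rats expressed as LD50, determined for both prodrugs and their parent compounds.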
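Wherever LD50 of HPP is given: acute toxicity in rats expressed as LD50, determined for both prodrugs and their parent compounds.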

SMILES | In vitro penetration rate (apparent flux), parent compounds (human skin tissue) | solubility [1] | LD50 (in vivo) | t, time to peak plasma level after parent compound [2] | Peak plasma concentration after parent compound [2] | also measured
COc1ccc2c(c1)c(CC(=O)OCC(=O)O)c(C)n2C(=O)c1ccc(Cl)cc1 [Acemetacin, acemetacin] | 10 μg/cm^2/h | 100 µg/mL (≈ 240 µM) | 24 mg/kg | 1 to 2 h | 0.1 mg/L | 
C=C(C)CNc1ccc(C(C)C(=O)O)cc1 (stereo not drawn) [Alminoprofen, alminoprofen] | 30 μg/cm^2/h | 100 µg/mL (≈ 456 µM) | 2400 mg/kg | 2 to 4 h | 10 mg/L | 
Nc1c(CC(=O)O)cccc1C(=O)c1ccccc1 [Amfenac, amfenac] | 10 μg/cm^2/h | 200 µg/mL (≈ 783 µM) | 310 mg/kg | 1 to 2 h | 0.1 mg/L | 
CC(C(=O)O)c1ccc2oc(-c3ccc(Cl)cc3)nc2c1 (stereo not drawn) [Benoxaprofen, benoxaprofen] | 40 μg/cm^2/h | 100 µg/mL (≈ 331 µM) | 800 mg/kg | 2 to 4 h | 10 mg/L | 
CC(C(=O)O)c1ccc2c(c1)[nH]c1ccc(Cl)cc12 (stereo not drawn) [Carprofen, carprofen] | 40 μg/cm^2/h | 100 µg/mL (≈ 365 µM) | 400 mg/kg | 2 to 4 h | 10 mg/L | 
O=C(O)C1CCc2cc(C3CCCCC3)c(Cl)cc21 (stereo not drawn) [Clidanac, clidanac] | 40 μg/cm^2/h | 100 µg/mL (≈ 359 µM) | 35 mg/kg | 2 to 4 h | 10 mg/L | 
CCc1cccc2c3c([nH]c12)C(CC)(CC(=O)O)OCC3 (stereo not drawn) [Etodolac, etodolac] | 10 μg/cm^2/h | 100 µg/mL (≈ 348 µM) | 460 mg/kg | 1 to 2 h | 0.1 mg/L | 
O=C(O)Cc1ccccc1Oc1ccc(Cl)cc1Cl [Fenclofenac, fenclofenac] | 10 μg/cm^2/h | 100 µg/mL (≈ 337 µM) | 2280 mg/kg | 1 to 2 h | 0.1 mg/L | 
O=C(O)C(Cl)c1ccc(C2CCCCC2)c(Cl)c1 (stereo not drawn) [Fenclorac, fenclorac] | 40 μg/cm^2/h | 200 µg/mL (≈ 696 µM) | 430 mg/kg | 2 to 4 h | 10 mg/L | 
O=C(O)Cc1sc(-c2ccccc2)nc1-c1ccc(Cl)cc1 [Fentiazac, fentiazac, reference compound] | 10 μg/cm^2/h |  | 700 mg/kg | 1 to 2 h | 0.1 mg/L | 
O=C(O)c1ccccc1Nc1cccc(C(F)(F)F)c1 [Flufenamic acid, flufenamic acid] | 10 μg/cm^2/h | < 100 µg/mL | 720 mg/kg | 2 to 4 h | 0.1 mg/L | 
CC(C)Cc1ccc(C(C)C(=O)O)cc1 (stereo not drawn) [Ibuprofen, 2-(ρ-isobutylphenyl) propionic acid, reference compound] | 50 μg/cm^2/h |  | 1500 mg/kg | 1 to 2 h | 2 mg/L | body temperature, t = 0 min (rats; 100 mg/kg orally): 37.25 ± 0.06; body temperature, t = 90 min (rats; 100 mg/kg orally): 36.83 ± 0.05; body temperature, t = 180 min (rats; 100 mg/kg orally): 36.80 ± 0.08; body temperature, t = 270 min (rats; 100 mg/kg orally): 36.78 ± 0.07; body temperature, t = 0 min (rats; 150 mg/kg orally): 37.35 ± 0.09; body temperature, t = 90 min (rats; 150 mg/kg orally): 36.59 ± 0.07; body temperature, t = 180 min (rats; 150 mg/kg orally): 36.53 ± 0.06; body temperature, t = 270 min (rats; 150 mg/kg orally): 36.55 ± 0.05; No. of Writhing (mice; 50 mg/kg orally): 17.2; No. of Writhing (mice; 100 mg/kg orally): 13.1; inhibition at 50 mg/kg (mice; Mus musculus, po, 50 mg/kg orally, read-out: % (rate of writhing inhibition)): 50%; inhibition at 100 mg/kg (mice; Mus musculus, po, 100 mg/kg orally, read-out: % (rate of writhing inhibition)): 62%
COc1ccc2c(c1)c(CC(=O)O)c(C)n2C(=O)c1ccc(Cl)cc1 [Indomethacin, indomethacin] | 10 μg/cm^2/h | 100 µg/mL (≈ 279 µM) | 13 mg/kg | 1 to 2 h | 0.1 mg/L | 
CC(C(=O)O)c1ccc(N2Cc3ccccc3C2=O)cc1 (stereo not drawn) [Indoprofen, indoprofen] | 30 μg/cm^2/h | 100 µg/mL (≈ 355 µM) | 700 mg/kg | 2 to 4 h | 10 mg/L | 
O=C(O)Cc1cn(-c2ccccc2)nc1-c1ccc(Cl)cc1 [Lonazolac, lonazolac, reference compound] |  | 100 µg/mL (≈ 320 µM) | 1000 mg/kg | 1 to 2 h | 0.1 mg/L | 
Cc1cccc(Nc2ccccc2C(=O)O)c1C [Mefenamic acid, mefenamic acid] | 10 μg/cm^2/h | < 100 µg/mL | 600 mg/kg | 2 to 4 h | 0.1 mg/L | 
CC(=O)O.CCN(CC)CCOC(=O)CC1=C(C)/C(=C/c2ccc([S+](C)[O-])cc2)c2ccc(F)cc21 (stereo not drawn) [diethylaminoethyl (Z)-5-fluoro-2-methyl-1-[(4-methylsulfinyl)phenylmethylene]-1H-indene-3-acetate.AcOH] |  |  |  |  |  | In vitro penetration rate (apparent flux), prodrug compounds (human skin tissue): 900 μg/cm^2/h; body temperature, t = 0 min (rats; 100 mg/kg transdermally): 37.28 ± 0.06; body temperature, t = 90 min (rats; 100 mg/kg transdermally): 36.65 ± 0.05; body temperature, t = 180 min (rats; 100 mg/kg transdermally): 36.62 ± 0.08; body temperature, t = 270 min (rats; 100 mg/kg transdermally): 36.58 ± 0.07; LD50 of HPP (rat; rats): 500 mg/kg; Peak plasma concentration of parent compound after prodrug compound [2]: 20 mg/L; t, time to peak plasma level of parent compound after prodrug compound [2]: 50 min; % (rate of writhing inhibition) (mice; 100 mg/kg transdermally): 59%; No. of Writhing (mice; 100 mg/kg transdermally): 14.2
CC(=O)O.CCN(CC)CCOC(=O)C(Cl)c1ccc(C2CCCCC2)c(Cl)c1 (stereo not drawn) [diethylaminoethyl α,3-dichloro-4-cyclohexylbenzeneacetate.AcOH] |  |  |  |  |  | In vitro penetration rate (apparent flux), prodrug compounds (human skin tissue): 3800 μg/cm^2/h; body temperature, t = 0 min (rats; 100 mg/kg transdermally): 37.25 ± 0.06; body temperature, t = 90 min (rats; 100 mg/kg transdermally): 36.75 ± 0.05; body temperature, t = 180 min (rats; 100 mg/kg transdermally): 36.62 ± 0.08; body temperature, t = 270 min (rats; 100 mg/kg transdermally): 36.58 ± 0.07; LD50 of HPP (rat; rats): 600 mg/kg; Peak plasma concentration of parent compound after prodrug compound [2]: 2000 mg/L; t, time to peak plasma level of parent compound after prodrug compound [2]: 50 min; % (rate of writhing inhibition) (mice; 100 mg/kg transdermally): 57%; No. of Writhing (mice; 100 mg/kg transdermally): 15.2
CC(=O)O.CCN(CC)CCOC(=O)C(C)c1ccc(C(=O)c2cccs2)cc1 (stereo not drawn) [diethylaminoethyl α-methyl-4-(2-thienylcarbonyl)benzeneacetate.AcOH] |  |  |  |  |  | In vitro penetration rate (apparent flux), prodrug compounds (human skin tissue): 3000 μg/cm^2/h; body temperature, t = 0 min (rats; 100 mg/kg transdermally): 37.28 ± 0.06; body temperature, t = 90 min (rats; 100 mg/kg transdermally): 36.65 ± 0.06; body temperature, t = 180 min (rats; 100 mg/kg transdermally): 36.58 ± 0.08; body temperature, t = 270 min (rats; 100 mg/kg transdermally): 36.45 ± 0.07; LD50 of HPP (rat; rats): 800 mg/kg; Peak plasma concentration of parent compound after prodrug compound [2]: 2000 mg/L; t, time to peak plasma level of parent compound after prodrug compound [2]: 50 min; % (rate of writhing inhibition) (mice; 100 mg/kg transdermally): 55%; No. of Writhing (mice; 100 mg/kg transdermally): 15.7
C=C(C)CNc1ccc(C(C)C(=O)OCCN(CC)CC)cc1.CC(=O)O (stereo not drawn) [diethylaminoethyl α-methyl-4-[(2-methyl-2-propenyl)amino]benzeneacetate.AcOH] |  |  |  |  |  | In vitro penetration rate (apparent flux), prodrug compounds (human skin tissue): 3500 μg/cm^2/h; body temperature, t = 0 min (rats; 100 mg/kg transdermally): 37.23 ± 0.06; body temperature, t = 90 min (rats; 100 mg/kg transdermally): 36.69 ± 0.06; body temperature, t = 180 min (rats; 100 mg/kg transdermally): 36.52 ± 0.08; body temperature, t = 270 min (rats; 100 mg/kg transdermally): 36.40 ± 0.07; LD50 of HPP (rat; rats): 1100 mg/kg; Peak plasma concentration of parent compound after prodrug compound [2]: 2000 mg/L; t, time to peak plasma level of parent compound after prodrug compound [2]: 50 min; % (rate of writhing inhibition) (mice; 100 mg/kg transdermally): 55%; No. of Writhing (mice; 100 mg/kg transdermally): 15.6
CC(=O)O.CCN(CC)CCOC(=O)C(C)c1ccc2c(c1)Cc1cccnc1O2 (stereo not drawn) [diethylaminoethyl α-methyl-5H-[1]benzopyrano[2,3-b]pyridine-7-acetate.AcOH] |  |  |  |  |  | In vitro penetration rate (apparent flux), prodrug compounds (human skin tissue): 3800 μg/cm^2/h; body temperature, t = 0 min (rats; 100 mg/kg transdermally): 37.27 ± 0.06; body temperature, t = 90 min (rats; 100 mg/kg transdermally): 36.76 ± 0.05; body temperature, t = 180 min (rats; 100 mg/kg transdermally): 36.65 ± 0.08; body temperature, t = 270 min (rats; 100 mg/kg transdermally): 36.49 ± 0.07; LD50 of HPP (rat; rat, in vivo): 750 mg/kg; Peak plasma concentration of parent compound after prodrug compound [2]: 2000 mg/L; t, time to peak plasma level of parent compound after prodrug compound [2]: 50 min; % (rate of writhing inhibition) (mice; 100 mg/kg transdermally): 54%; No. of Writhing (mice; 100 mg/kg transdermally): 16.1
CC(=O)O.CN(C)CCOC(=O)Cc1ccccc1Nc1c(Cl)cccc1Cl [dimethylaminoethyl 2[(2,6-dichlorophenyl)amino] benzene acetate.AcOH] |  |  |  |  |  | Solubility in water ([1]; product as prepared in Example 1): 410000 µg/mL; LD50 of HPP (rat; rat, in vivo): 700 mg/kg
